In patent publication US20230265151A1, “GIP/GLP1 CO-AGONIST COMPOUNDS” (priority 2020, published 2023):
Read-outs that look alike come from different tables or passages of the source.

Legend:
hGIPR = target: T1, hGIPR (Homo sapiens, UniProt P48546); assay: Functional cAMP formation (HTRF) in HEK-293 clonal cells expressing hGIPR, 0.1% bovine casein, without or with 1.0% human serum albumin; type: cell-based; details: 37° C.; for Emax: read-out: hGIPR Emax, % ± SEM; for EC50: geometric mean, read-out: hGIPR EC50, nM (SEM, n)
T1 construct: expressed in transfected cells
T1 sequence (P48546 22-466): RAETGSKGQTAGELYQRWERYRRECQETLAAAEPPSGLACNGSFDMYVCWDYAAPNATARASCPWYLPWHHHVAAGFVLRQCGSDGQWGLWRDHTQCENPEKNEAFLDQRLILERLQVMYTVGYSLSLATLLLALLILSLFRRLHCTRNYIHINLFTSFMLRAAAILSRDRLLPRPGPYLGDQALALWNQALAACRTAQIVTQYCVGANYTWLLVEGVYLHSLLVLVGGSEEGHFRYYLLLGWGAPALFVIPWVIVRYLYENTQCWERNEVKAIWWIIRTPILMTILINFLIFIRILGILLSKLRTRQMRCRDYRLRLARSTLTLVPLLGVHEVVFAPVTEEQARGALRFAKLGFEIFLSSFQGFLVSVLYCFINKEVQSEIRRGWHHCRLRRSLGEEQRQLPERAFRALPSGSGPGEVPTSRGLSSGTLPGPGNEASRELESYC
Procedure, shortened: (§1)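 Cells were stimulated with peptide for 30 min at 37° C, then intracellular cAMP was measured by competitive HTRF (665/620 nm ratio) and converted to nM using a cAMP standard curve. Relative EC50 and Emax came from four-parameter logistic fits of percent maximal response against peptide concentration.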

hGCGR = target: T2, hGCGR (Homo sapiens, UniProt P47871); assay: Functional cAMP formation (HTRF) in HEK-293 clonal cells expressing hGCGR, 0.1% bovine casein, without or with 1.0% human serum albumin; type: cell-based; details: geometric mean, read-out: hGCGR EC50, nM (SEM, n)
T2 construct: expressed in transfected cells
Procedure, shortened: as §1

[1] = HEK293, percent of maximal response to GIP(1-42)NH2, 0.1% bovine casein, arithmetic mean
[2] = cAMP, incubated at 37° C., 0.1% bovine casein (no human serum albumin)
[3] = HEK293, 0.1% bovine casein and 1.0% human serum albumin, percent of maximal response to GIP(1-42)NH2
[4] = cAMP, 0.1% bovine casein (no human serum albumin)
[5] = 0.1% bovine casein and 1.0% human serum albumin, 37° C.
[6] = cAMP, 37° C., 0.1% bovine casein (no human serum albumin)

T2 sequence (P47871 26-477): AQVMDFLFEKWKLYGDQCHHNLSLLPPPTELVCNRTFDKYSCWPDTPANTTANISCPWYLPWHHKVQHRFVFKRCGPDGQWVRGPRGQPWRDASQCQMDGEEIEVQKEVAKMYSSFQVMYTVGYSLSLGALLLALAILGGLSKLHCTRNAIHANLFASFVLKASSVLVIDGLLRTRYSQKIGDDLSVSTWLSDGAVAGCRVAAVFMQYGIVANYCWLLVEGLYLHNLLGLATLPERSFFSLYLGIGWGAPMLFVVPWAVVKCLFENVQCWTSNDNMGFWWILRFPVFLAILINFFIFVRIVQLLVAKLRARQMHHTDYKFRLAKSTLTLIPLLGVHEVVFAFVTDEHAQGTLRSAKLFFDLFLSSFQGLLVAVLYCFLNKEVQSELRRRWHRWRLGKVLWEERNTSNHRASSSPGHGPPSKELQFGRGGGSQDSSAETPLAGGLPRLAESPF

Row | Compound | Emax (hGIPR; [1]) | EC50 (hGCGR; [2]) | EC50 (hGIPR; 0.1% bovine casein and 1.0% human serum albumin) | Emax (hGIPR; [3]) | Emax (hGIPR; HEK293, cAMP, 0.1% bovine casein, percent of maximal response to GIP(1-42)NH2, arithmetic mean) | EC50 (hGIPR; [4]) | EC50 (hGCGR; [5]) | EC50 (hGCGR; [6])
1 | CC[C@H](C)[C@H](NC(=O)[C@H](CC(C)C)NC(=O)[C@](C)(Cc1ccc(O)cc1)NC(=O)[C@@H](CCC(=O)O)NC(=O)[C@@H](NC(=O)[C@H](Cc1ccccc1)NC(=O)[C@H](CCC(=O)O)NC(=O)C(C)(C)NC(=O)[C@H](CCC(N)=O)NC(=O)[C@H](C)NC(=O)[C@H](CCCCNC(=O)COCCOCCNC(=O)COCCOCCNC(=O)CC[C@H](NC(=O)CCCCCCCCCCCCC(=O)O)C(=O)O)NC(=O)CNC(=O)[C@H](CC(=O)O)NC(=O)[C@H](CC(C)C)NC(=O)[C@](C)(CC(C)C)NC(=O)[C@@H](NC(=O)[C@H](CO)NC(=O)[C@H](Cc1ccncc1)NC(=O)[C@H](CC(=O)O)NC(=O)[C@H](CO)NC(=O)[C@@H](NC(=O)[C@](C)(Cc1ccccc1F)NC(=O)[C@@H](NC(=O)CNC(=O)[C@H](CCC(=O)O)NC(=O)C(C)(C)NC(=O)[C@@H](N)Cc1ccc(O)cc1)[C@@H](C)O)[C@@H](C)O)[C@@H](C)CC)[C@@H](C)CC)C(=O)N[C@@H](CCC(=O)O)C(=O)NCC(=O)NCC(=O)N[C@@H](CCCCNC(=O)COCCOCCNC(=O)COCCOCCNC(=O)CC[C@H](NC(=O)CCCCCCCCCCCCC(=O)O)C(=O)O)C(=O)N[C@@H](CO)C(=O)N[C@@H](CO)C(=O)NCC(=O)N[C@@H](C)C(=O)N1CCC[C@H]1C(=O)N1CCC[C@H]1C(=O)N1CCC[C@H]1C(=O)N[C@@H](CO)C(N)=O [Example 101] | 92.1% | > 9950 nM |  |  |  |  |  | 
2 | CC[C@H](C)[C@H](NC(=O)[C@H](CC(C)C)NC(=O)[C@](C)(Cc1ccc(O)cc1)NC(=O)[C@@H](CCC(=O)O)NC(=O)[C@@H](NC(=O)[C@H](Cc1ccccc1)NC(=O)[C@H](CCC(=O)O)NC(=O)C(C)(C)NC(=O)[C@H](CCC(N)=O)NC(=O)[C@H](C)NC(=O)[C@H](CCCCNC(=O)COCCOCCNC(=O)COCCOCCNC(=O)CC[C@H](NC(=O)CCCCCCCCCCCCC(=O)O)C(=O)O)NC(=O)[C@H](CCCN)NC(=O)[C@H](CC(=O)O)NC(=O)[C@H](CC(C)C)NC(=O)[C@](C)(CC(C)C)NC(=O)[C@@H](NC(=O)[C@H](CO)NC(=O)[C@H](Cc1ccc(OC)cc1)NC(=O)[C@H](CC(=O)O)NC(=O)[C@H](CO)NC(=O)[C@@H](NC(=O)[C@](C)(Cc1ccccc1F)NC(=O)[C@@H](NC(=O)CNC(=O)[C@H](CCC(=O)O)NC(=O)C(C)(C)NC(=O)[C@@H](N)Cc1ccc(O)cc1)[C@@H](C)O)[C@@H](C)O)[C@@H](C)CC)[C@@H](C)CC)C(=O)N[C@@H](CCCCNC(=O)COCCOCCNC(=O)COCCOCCNC(=O)CC[C@H](NC(=O)CCCCCCCCCCCCC(=O)O)C(=O)O)C(=O)NCC(=O)NCC(=O)N1CCC[C@H]1C(=O)N[C@@H](CO)C(=O)N[C@@H](CO)C(=O)NCC(=O)N[C@@H](C)C(=O)N1CCC[C@H]1C(=O)N1CCC[C@H]1C(=O)N1CCC[C@H]1C(=O)N[C@@H](CO)C(N)=O [Example 260] |  |  | 3.27 nM | 83% | 113% | 0.0239 nM | > 9950 nM | > 9950 nM
3 | CCCCCCCCCCCC(=O)N[C@@H](CCC(=O)NCCOCCOCC(=O)NCCOCCOCC(=O)NCCCC[C@H](NC(=O)[C@H](CCCN)NC(=O)[C@H](CC(=O)O)NC(=O)[C@H](CC(C)C)NC(=O)[C@](C)(CC(C)C)NC(=O)[C@@H](NC(=O)[C@H](CO)NC(=O)[C@H](CCCCNC(=O)COCCOCCNC(=O)COCCOCCNC(=O)CC[C@H](NC(=O)CCCCCCCCCCC)C(=O)O)NC(=O)[C@H](CC(=O)O)NC(=O)[C@H](CO)NC(=O)[C@@H](NC(=O)[C@](C)(Cc1ccccc1F)NC(=O)[C@@H](NC(=O)CNC(=O)[C@H](CCC(=O)O)NC(=O)C(C)(C)NC(=O)[C@@H](N)Cc1ccc(O)cc1)[C@@H](C)O)[C@@H](C)O)[C@@H](C)CC)C(=O)N[C@@H](C)C(=O)N[C@@H](CCC(N)=O)C(=O)NC(C)(C)C(=O)N[C@@H](CCC(=O)O)C(=O)N[C@@H](Cc1ccccc1)C(=O)N[C@H](C(=O)N[C@H](CCC(=O)O)C(=O)N[C@@](C)(Cc1ccc(O)cc1)C(=O)N[C@@H](CC(C)C)C(=O)N[C@H](C(=O)N[C@@H](CCC(=O)O)C(=O)NCC(=O)NCC(=O)N1CCC[C@H]1C(=O)N[C@@H](CO)C(=O)N[C@@H](CO)C(=O)NCC(=O)N[C@@H](C)C(=O)N1CCC[C@H]1C(=O)N1CCC[C@H]1C(=O)N1CCC[C@H]1C(=O)N[C@@H](CO)C(N)=O)[C@@H](C)CC)[C@@H](C)CC)C(=O)O [Example 136] | 97.4 ± 4.23% | > 9950 nM |  |  |  |  |  | 
4 | CC[C@H](C)[C@H](NC(=O)[C@H](CC(C)C)NC(=O)[C@](C)(Cc1ccc(O)cc1)NC(=O)[C@@H](CCC(=O)O)NC(=O)[C@@H](NC(=O)[C@H](Cc1ccccc1)NC(=O)[C@H](CCC(=O)O)NC(=O)C(C)(C)NC(=O)[C@H](CCC(N)=O)NC(=O)[C@H](C)NC(=O)[C@H](CCCCNC(=O)COCCOCCNC(=O)COCCOCCNC(=O)CC[C@H](NC(=O)CCCCCCCCCCCCC(=O)O)C(=O)O)NC(=O)[C@H](CCCN)NC(=O)[C@H](CC(=O)O)NC(=O)[C@H](CC(C)C)NC(=O)[C@](C)(CC(C)C)NC(=O)[C@@H](NC(=O)[C@H](CO)NC(=O)[C@H](Cc1ccncc1)NC(=O)[C@H](CC(=O)O)NC(=O)[C@H](CO)NC(=O)[C@@H](NC(=O)[C@](C)(Cc1ccccc1F)NC(=O)[C@@H](NC(=O)CNC(=O)[C@H](CCC(=O)O)NC(=O)C(C)(C)NC(=O)[C@@H](N)Cc1ccc(O)cc1)[C@@H](C)O)[C@@H](C)O)[C@@H](C)CC)[C@@H](C)CC)C(=O)N[C@@H](CCC(=O)O)C(=O)NCC(=O)N[C@@H](CCCN)C(=O)N[C@@H](CCCCNC(=O)COCCOCCNC(=O)COCCOCCNC(=O)CC[C@H](NC(=O)CCCCCCCCCCCCC(=O)O)C(=O)O)C(=O)N[C@@H](CO)C(=O)N[C@@H](CO)C(=O)NCC(=O)N[C@@H](C)C(=O)N1CCC[C@H]1C(=O)N1CCC[C@H]1C(=O)N1CCC[C@H]1C(=O)N[C@@H](CO)C(N)=O [Example 152] | 97.9 ± 3.25% | > 9950 nM |  |  |  |  |  | 
5 | CC[C@H](C)[C@H](NC(=O)[C@H](CC(C)C)NC(=O)[C@](C)(Cc1ccc(O)cc1)NC(=O)[C@@H](CCC(=O)O)NC(=O)[C@@H](NC(=O)[C@H](Cc1ccccc1)NC(=O)[C@H](CCC(=O)O)NC(=O)C(C)(C)NC(=O)[C@H](CCC(N)=O)NC(=O)[C@H](C)NC(=O)[C@H](CCCCNC(=O)COCCOCCNC(=O)COCCOCCNC(=O)CC[C@H](NC(=O)CCCc1ccc(C(C)(C)C)cc1)C(=O)O)NC(=O)[C@H](CCCN)NC(=O)[C@H](CC(=O)O)NC(=O)[C@H](CC(C)C)NC(=O)[C@](C)(CC(C)C)NC(=O)[C@@H](NC(=O)C(C)(C)NC(=O)[C@@H](NC(=O)[C@H](CC(=O)O)NC(=O)[C@H](CO)NC(=O)[C@@H](NC(=O)[C@](C)(Cc1ccccc1F)NC(=O)[C@@H](NC(=O)CNC(=O)[C@H](CCC(=O)O)NC(=O)C(C)(C)NC(=O)[C@@H](N)Cc1ccc(O)cc1)[C@@H](C)O)[C@@H](C)O)C(C)C)[C@@H](C)CC)[C@@H](C)CC)C(=O)N[C@@H](CCC(=O)O)C(=O)NCC(=O)NCC(=O)N[C@@H](CCCCNC(=O)COCCOCCNC(=O)COCCOCCNC(=O)CC[C@H](NC(=O)CCCc1ccc(C(C)(C)C)cc1)C(=O)O)C(=O)N[C@@H](CO)C(=O)N[C@@H](CO)C(=O)NCC(=O)N[C@@H](C)C(=O)N1CCC[C@H]1C(=O)N1CCC[C@H]1C(=O)N1CCC[C@H]1C(=O)N[C@@H](CO)C(N)=O [Example 177] | 113% | > 9950 nM |  |  |  |  |  | 
6 | CC[C@H](C)[C@H](NC(=O)[C@H](CC(C)C)NC(=O)[C@](C)(Cc1ccc(O)cc1)NC(=O)[C@@H](CCC(=O)O)NC(=O)[C@@H](NC(=O)[C@H](Cc1ccccc1)NC(=O)[C@H](CCCCNC(=O)COCCOCCNC(=O)COCCOCCNC(=O)CCCCCCCCCCCCC(=O)O)NC(=O)C(C)(C)NC(=O)[C@H](CCC(N)=O)NC(=O)[C@H](C)NC(=O)[C@H](CCCCNC(=O)COCCOCCNC(=O)COCCOCCNC(=O)CCCCCCCCCCCCC(=O)O)NC(=O)[C@H](CCCN)NC(=O)[C@H](CC(=O)O)NC(=O)[C@H](CC(C)C)NC(=O)[C@](C)(CC(C)C)NC(=O)[C@@H](NC(=O)[C@H](CO)NC(=O)[C@H](Cc1ccc2ccccc2c1)NC(=O)[C@H](CC(=O)O)NC(=O)[C@H](CO)NC(=O)[C@@H](NC(=O)[C@](C)(Cc1ccccc1F)NC(=O)[C@@H](NC(=O)CNC(=O)[C@H](CCC(=O)O)NC(=O)C(C)(C)NC(=O)[C@@H](N)Cc1ccc(O)cc1)[C@@H](C)O)[C@@H](C)O)[C@@H](C)CC)[C@@H](C)CC)C(=O)N[C@@H](CCC(=O)O)C(=O)NCC(=O)NCC(=O)N1CCC[C@H]1C(=O)N[C@@H](CO)C(=O)N[C@@H](CO)C(=O)NCC(=O)N[C@@H](C)C(=O)N1CCC[C@H]1C(=O)N1CCC[C@H]1C(=O)N1CCC[C@H]1C(=O)N[C@@H](CO)C(N)=O [Example 255] |  |  |  | 93.4% |  | 0.0213 nM | > 9950 nM | > 9950 nM
